We go through four compounds from PMC11220700, “Activation and Purification of ß‐Glucocerebrosidase by Exploiting its Transporter LIMP‐2 – Implications for Novel Treatment Strategies in Gaucher's and Parkinson's Disease” (Advanced Science, 2024).

Data set [1] has as its system Parkinson's disease progression. The settings on record: ClinicalTrials.gov ID NCT02906020; cited from earlier work. The source says:
In the context of diseases, where lysosomal GCase activity is reduced, activation of either impaired mutated GCase or residual wt GCase could provide a therapeutic strategy for restoring lysosomal function. Both in GBA1‐associated and in GBA1‐wt PD models and patients, ongoing preclinical and clinical studies are already exploring this possibility, predominantly at the stage of screening for GCase activators for the treatment of Gaucher and Parkinson's disease.^[ [57], [58] ^] Despite the expected increase of the prevalence of PD and worldwide disease burden due to increasing life expectancy a ...

Data set [2] deals with recombinant GCase (Cerezyme/imiglucerase). Kind of data set: 4MU GCase activity assay with recombinant enzyme Cerezyme/imiglucerase. The settings on record: varying peptide concentrations, 4MU substrate, detergent‐free, n = 3. The data set is classed as biochemical. The protocol: Activity of GCase‐containing samples (recombinant protein, cell lysate, LE fractions, conditioned culture medium) was measured using the synthetic substrate 4‐methylumbelliferyl‐β‐D‐glucopyranoside (4MU, Merck Millipore, Billerica, MA, United States, #M3633). […] of the sample (cell supernatant, SEC fractions) or 2.5 µg of total protein from whole‐cell lysates were added to the well of a black 96‐well Maxisorp plate (ThermoFisher Scientific Inc., Waltham, MA, United States, #437 111). The reaction volume was then increased to 100 µL with GCase activity buffer (see paragraph “Cell Lysis”) and a final concentration of 1 µM of 4MU substrate was added. After incubation at 37 °C for 30 min, the reaction was stopped by adding 100 µL of stop solution (0.1 M glycine, pH 10.4). GCase activity was quantified via fluorescence of released 4‐methylumbelliferone (endpoint measurement) using an Infinite 200 Pro (TECAN, Männedorf, Switzerland), SpectraMax Gemini (Molecular Devices, San José, CA, United States) or ClarioStar (BMG LABTECH, Ortenberg, Germany) multiplate reader (λ ex: 365 nm; λ em: 445 nm).
For all activity assays in the presence of recombinant LIMP‐2 or synthetic peptides, sodium taurocholate, and Triton X‐100 were omitted from the reaction to not hinder protein–protein interaction. […]

The test system of data set [3] is lysosomal GCase in primary human fibroblasts (CTRL‐2, PD‐1, PD‐2). In words: Live cell measurement of lysosomal GCase activity (PFB‐Gluc). The settings on record: 10 µM peptide, 48 h, area between curves (total minus bafilomycin), n = 3. In kind it is cell-based. The protocol: GCase activity inside the lysosomes of living cells was measured via the fluorescent probe PFB‐Gluc (ThermoFisher Scientific Inc., Waltham, MA, United States, #P11947). The experimental procedure was adapted from Cuddy and Mazzulli.^[ [72] ^] Primary human fibroblasts were seeded at 20 000 cells per well on a black 96‐well cell culture dish with transparent bottom (Corning, Corning, NY, United States, #3603). For each replicate, two wells were seeded. […] The next day, the medium was changed again to 50 µL of fresh media containing treatment. On day 3, one of the two‐seeded wells for each replicate (control well) was treated with 200 nM bafilomycin 1A (Baf, Santa Cruz Biotechnology, Dallas, TX, United States, #sc‐201550A) for 1 h to inhibit lysosomal enzyme activity. […] Immediately after, the first fluorescence measurement was taken (PFB‐Gluc: λ ex: 485 nm; λ em: 538 nm; cutoff: 495 nm). The cells were kept at 37 °C and measured every 30 min for a total of 180 min. […]
For data evaluation, PFB‐Gluc measurements over time were baseline‐corrected and then normalized per well to the respective CellTag 700 signal (cell volume). Replicates were arranged in an XY diagram with their respective Baf control and the AUC for both curves was calculated. Lysosomal activity was then calculated by subtracting the baf control (non‐lysosomal activity) AUC from the non‐inhibited AUC (total activity).

Data set [4] concerns HEK 293T cells. The settings on record: 5 µM L2H5‐wt, LC‐MS/MS.
Procedure: HEK 293T cells were seeded on 10 cm dishes. When confluence was reached, the cells were treated with 5 µM of L2H5‐wt for 2 and 24 h before harvesting. LE fractions were generated as described before (see “Expression and enrichment of lysosomes from HEK 293T cells”). Proteome analysis was performed as described in the following:
The LE fractions were processed using the single‐pot, solid‐phase‐enhanced sample‐preparation (SP3) approach.^[ [74] ^] The proteins were then digested using trypsin overnight at 37 °C. The resultant peptide solution was purified by solid phase extraction in C18 StageTips.^[ [75] ^]
Samples were analyzed using an Orbitrap Exploris 480 mass spectrometer (Thermo Fisher Scientific, Waltham, MA, United States) coupled to an EASY‐nLC 1200 UHPLC system (Thermo Fisher Scientific, Waltham, MA, United States). Peptides were separated in an in‐house packed 60‐cm analytical column (inner diameter: 75 µm; ReproSil‐Pur 120 C18‐AQ 1.9‐µm silica particles, Dr. Maisch, Ammerbuch, Germany) by online reversed‐phase chromatography through a 120‐min gradient of 2.4–32% v/v acetonitrile with 0.1% v/v formic acid at a nanoflow rate of 250 nl min^−1. The eluted peptides were sprayed directly by electrospray ionization into the mass spectrometer. […]
Data set [5] can be described thus: Precipitation / solubility of peptide in assay buffers. The data set is classed as physicochemical. The settings on record: lysosomal pH 5.0, higher concentrations. The protocol:
Activity of GCase‐containing samples (recombinant protein, cell lysate, LE fractions, conditioned culture medium) was measured using the synthetic substrate 4‐methylumbelliferyl‐β‐D‐glucopyranoside (4MU, Merck Millipore, Billerica, MA, United States, #M3633). […] of the sample (cell supernatant, SEC fractions) or 2.5 µg of total protein from whole‐cell lysates were added to the well of a black 96‐well Maxisorp plate (ThermoFisher Scientific Inc., Waltham, MA, United States, #437 111). The reaction volume was then increased to 100 µL with GCase activity buffer (see paragraph “Cell Lysis”) and a final concentration of 1 µM of 4MU substrate was added. […] GCase activity was quantified via fluorescence of released 4‐methylumbelliferone (endpoint measurement) using an Infinite 200 Pro (TECAN, Männedorf, Switzerland), SpectraMax Gemini (Molecular Devices, San José, CA, United States) or ClarioStar (BMG LABTECH, Ortenberg, Germany) multiplate reader (λ ex: 365 nm; λ em: 445 nm). […]
For interaction of GCase with L2H5‐wt peptide, recombinant GCase was produced in‐house (see paragraph “Expression and Purification of His‐tagged GCase‐wt Protein”) and labeled as described for Cerezyme. […] For each replicate, a twofold dilution series of 16 samples was measured, starting at 125 µM ligand (L2H5‐wt) concentration. […]

The test system of data set [6] is primary human fibroblasts (CTRL‐2, PD‐1, PD‐2). Kind of data set: Toxicity assessment via LDH release. The data set is classed as cell-based. The protocol:
Primary human fibroblasts were seeded on a 96‐well plate at 3 × 10^4 cells per well. The next day, the medium was replaced with a 50 µL fresh fibroblast medium containing various concentrations of L2H5‐wt peptide (0–20 µM). The cells were incubated for 72 h before the conditioned medium was harvested. LDH release to the cell medium as a marker for cell death was measured using a CyQuant LDH Cytotoxicity Assay Kit (Invitrogen, Waltham, MA, United States #C20300) following the manufacturer's instructions. For each condition, three wells were seeded and measured as triplicates. A480 and […] absorption values were measured using a ClarioStar (BMG LABTECH, Ortenberg, Germany) multiplate reader. LDH enzyme activity was determined by calculating the difference between A480 and A690 values for each well.

A short description of data set [7]: SEC of FRed-L2H5-wt. In kind it is physicochemical. The settings on record: Superdex 200 Increase 10/300 GL, PBS, 0.5 mL min^−1, UV280 and UV580. The procedure:
Two hundred microliters of protein solution were injected using a 500 μL loop. Fractions of 1000 μL were collected. Based on the UV280 and UV580 elution profiles, fraction 15 containing monomeric […] concentrated using a 10K Amicon ultra 0.5 filter unit.

Entries after “also recorded” stand apart in the source; their conditions may differ. No end group written: not given here.

For `CC(C)(NC(=O)O[C@@H]1CN2CCC1CC2)c1csc(-c2ccc(F)cc2)n1` [venglustat], the clinical trial outcome in data set [1] is “changing GluCer levels alone may not be sufficient to positively affect disease progression”.
In the case of “KFERQGSGSQVHFLREDDEAMDKAYQSGSGYGRKKRRQRRR [L2H5‐3xD]”, in data set [2], the “effect on GCase activity, concentration dependence” value was “no effect on GCase activity”. Further, in data set [3], the “lysosomal GCase activity” value is “did not affect lysosomal GCase activity; also recorded: did not elevate lysosomal GCase activity”.
In the case of “KFERQGSGSQVHFLREIIEAMLKAYQSGSGYGRKKRRQRRR-NH2 [L2H5‐wt]”, the “L2H5‐wt‐specific tryptic peptides detected in LE fractions, 2 h” value in data set [4] is “peptides 2 and 3; also recorded: could be detected by mass spectrometry 2 h”. The “solubility in MST measurement” value in data set [5] is recorded as “insufficient solubility of the peptide at higher concentrations”. For the same compound, the “concentration tolerated (no increase in cell death, LDH release)” value in data set [6] (0–20 µM, 72 h, CTRL‐2, PD‐1, PD‐2 fibroblasts, n = 3) is “up to 10 µM”. The “LDH release at 20 µM” value in data set [6] (20 µM, 72 h, CTRL‐2, PD‐1, PD‐2 fibroblasts, n = 3) was “strong increase in LDH release; also recorded: LDH activity in the medium was significantly increased”. Besides, in data set [6] (primary fibroblasts), the “concentration at which cell toxicity starts” value is reported as ≥ 20 µM.
With “QVHFLREIIEAMLKAYQ [FRed‐L2H5‐wt, L2H5‐wt peptide fused to FusionRed, expressed in E. coli]”, in data set [7], the “aggregation in SEC profile” value was “The earlier peak likely consists of aggregated protein”.
